Measured values as given in US8383578B2, “Peptides, derivatives and analogs thereof, and methods of using same” (CureDM Group Holdings, LLC, priority 2005, dated 2013).
Entries after “also recorded” stand apart in the source; their conditions may differ.

Tests used:
type 1 patients = settings: cited from earlier work
[1] = dosages up to 10,000 IU/day; cited from earlier work
diabetic patients = settings: cited from earlier work
[2] = tested on: human pancreatic ductal tissue culture; assay: Insulin production in human pancreatic ductal tissue culture, radioimmunoassay; type: cell-based; settings: 3.3 μM (final culture concentration of 165 nM)
Procedure: (§1) Human pancreatic islet and progenitor fractions were cultured over 10 days, according to standard protocol. Briefly, pancreata from adult human cadaveric organ donors were obtained through the local organ procurement organization. Islets were isolated according to established protocols described by Bonner-Weir and Jamal. (Bonner-Weir et al., Pediatric Diabetes: 2004; 5(Suppl 2):16-22. Jamal et al., Cell Death Differ. 2005 July; 12(7):702-12).
(§2) Following removal of the organ, cold ischemia time was no more than 8 hours prior to islet isolation. The main pancreatic duct was cannulated and perfused with Liberase HI (Roche Diagnostics). The perfused organ was placed in a closed system (Ricordi Apparatus) and heated to 37° C. to activate the enzyme blend. Following the appearance of free islets in samples, the system was cooled and free tissues were collected and washed. Tissues were applied to a continuous density gradient created using Ficoll (Biochrom KG) in a cell processor (COBE). Free islets with diameters ranging from 75 to 400 μm, determined to be greater than 90% pure by staining with dithizone (Sigma) a zinc chelater, were collected and washed. IHC to detect the presence of amylase and cytokeratin was negative, consistent with the absence of progenitor and exocrine tissue. The progenitor fraction from this separation was also collected for culture.
(§3) Isolated islets were embedded in a type 1 collagen matrix at a density of 2000 islet equivalents/25 cm^2 and cultured in DMEM/F12 containing 10% FBS, 1 μM dexamethasone, 10 ng/ml EGF, 24 mU/ml insulin and 100 ng/ml cholera toxin. Medium was changed every other day. On day 10, culture was continued in the above medium, without the cholera toxin, with neogenic agents and inhibitors at the final concentrations listed below. Medium was changed every other day. Collagen-embedded cultures were harvested by incubating with 0.25 g/L collagenase XI (Sigma) for 30 minutes at 37° C. […]
(§4) Insulin levels were detected by Radioimmunoassay (RIA) from cultures treated with saline only, scrambled peptide, SEQ ID NOs: 7, 3 or 2 and hamster INGAP. […]

[3] = tested on: human pancreatic ductal tissue cultures; assay: Insulin production in human pancreatic ductal tissue cultures, ELISA; type: cell-based; settings: for insulin production vs Peptide 4 (hamster INGAP) and Peptide 5 (scrambled) (FIG. 4): after 10 days, Rosenberg protocol, samples 5 μg total protein in duplicate; for insulin production vs hamster INGAP and scrambled control (FIG. 7A): two concentrations of peptide (3 μM and 1 mM)
Procedure: (§5) Human pancreatic tissue was treated as described in Example 1 and Insulin production was measured by ELISA assay. FIGS. 4 and 5 show the results of this experiment to show a dose response and to again compare the effect of HIP on the two different fractions of tissue as compared to the hamster INGAP sequence and a scrambled negative peptide sequence. […] The results in FIG. 4 involve the use of 5 μg of each peptide, while the results in FIG. 5 were acquired using 0.002 μg of each peptide.

[4] = tested on: human pancreatic islet tissue; assay: Insulin production in human pancreatic islet tissue culture, radioimmunoassay; type: cell-based; settings: 1 mM for a final culture concentration of 500 nM
Procedure: as §1, §2, §3, §4

[5] = tested on: human pancreatic islet tissue cultures; assay: Insulin production in human pancreatic islet tissue cultures, ELISA; type: cell-based; settings: for insulin production vs Peptide 4 (hamster INGAP) and Peptide 5 (scrambled) (FIG. 5): after 10 days, Rosenberg protocol, 0.002 μg of each peptide in duplicate; for insulin production vs hamster INGAP and scrambled control (FIG. 7B): two concentrations of peptide (3 μM and 1 mM)
Procedure: as §5

[6] = tested on: human pancreatic progenitor cells; assay: Islet generation in human ductal tissue culture, inverted microscopy; type: cell-based; settings: ductal/progenitor tissue fraction culture treated with HIP; listed as HIP
Procedure: A human ductal tissue fraction was isolated and cultured as described in Example 1. After 10 days of culture, cells were treated with HIP for four days and observed using inverted microscopy. […] Islets have formed what has previously been described as ductal epithelial cysts and are starting to bud at one end where a progenitor cell resides. […] In this panel the darkening of the budding portion of the ductal epithelial cyst indicates the differentiation of cells consistent with previously shown changes that occur with hamster INGAP treatment in vitro.

NOD mice = assay: HIP treatment of non-obese diabetic (NOD) mice; type: in vivo, mouse; settings: HIP 1 μg/kg/day to 100 mg/kg/day, protocol example
Source text: Animal Model. The non-obese diabetic (NOD) mouse strain has long been studied as an excellent model of type 1 diabetes because it spontaneously develops a disease that is very similar to the human condition. Delovitch, T. L., and Singh, B. 1997. Immunity. 7:727-738. Diabetes in NOD mice is mediated by inflammatory autoreactive T cells that recognize pancreatic islet antigens and escape central and peripheral tolerance.
Procedure: In a parental colony of NOD mice, incidence of diabetes in female NOD mice is typically 75-90% by 30 weeks but may exceed 90% in some cohorts. […] Doses of HIP range from 1 μg/kg/day to 100 mg/kg/day.
Treatment. Cohorts are treated in 2 arms with 2-4 dose ranges of HIP and a placebo, at a compensated dose for animal size, metabolism and circulation, or about 1/6 the mg/kg equivalence. Arm 1: saline, Arm 2: HIP.
Study Assessment. Blood glucose levels are measured every week with a One Touch II glucose meter (Lifescan). Mice are considered diabetic after 2 consecutive measurements over 300 mg/dl. For histological analysis, pancreases are snap-frozen. Multiple 5-μm sections are stained with hematoxylin and eosin and scored blindly for severity of insulitis as known in the art.

Compound	insulin production vs INGAP peptide and scrambled negative control (FIG. 1) [2]	insulin production vs Peptide 4 (hamster INGAP) and Peptide 5 (scrambled) (FIG. 4) [3]	insulin production vs hamster INGAP and scrambled control (FIG. 7A) [3]	insulin production vs INGAP peptide and scrambled negative control (FIG. 2) [4]	insulin production vs Peptide 4 (hamster INGAP) and Peptide 5 (scrambled) (FIG. 5) [5]	insulin production vs hamster INGAP and scrambled control (FIG. 7B) [5]	other results
CC[C@H](C)[C@H](NC(=O)[C@@H]1CCCN1C(=O)CNC(=O)[C@H](Cc1ccccc1)NC(=O)[C@H](CC(N)=O)NC(=O)[C@H](CC(N)=O)NC(=O)[C@H](CO)NC(=O)[C@H](CO)NC(=O)[C@H](Cc1c[nH]cn1)NC(=O)[C@@H](NC(=O)[C@H](CC(C)C)NC(=O)[C@H](Cc1ccccc1)NC(=O)[C@H](CC(N)=O)NC(=O)[C@H](C)NC(=O)[C@H](CC(C)C)NC(=O)[C@H](CCCNC(=N)N)NC(=O)[C@H](CCC(N)=O)NC(=O)[C@@H](NC(=O)[C@H](C)NC(=O)[C@@H]1CSSC[C@H](NC(=O)[C@@H](N)CCCCN)C(=O)N[C@@H](CC(N)=O)C(=O)N[C@@H]([C@@H](C)O)C(=O)N[C@@H](C)C(=O)N[C@@H]([C@@H](C)O)C(=O)N1)[C@@H](C)O)C(C)C)C(=O)N[C@@H](CC(C)C)C(=O)N1CCC[C@H]1C(=O)N1CCC[C@H]1C(=O)N[C@H](C(=O)N[C@@H](CC(N)=O)C(=O)N[C@H](C(=O)NCC(=O)N[C@@H](CO)C(=O)N[C@@H](CC(N)=O)C(=O)N[C@H](C(=O)N[C@@H](Cc1ccc(O)cc1)C(N)=O)[C@@H](C)O)C(C)C)[C@@H](C)O [Pramlintide]							glycemic excursions and pre-meal insulin requirements (type 1 patients): reduce glycemic excursions
C=C1CC[C@H](O)C/C1=C/C=C1\CCC[C@]2(C)[C@@H]([C@H](C)CCCC(C)C)CC[C@@H]12 [Vitamin D, cholecalciferol]							adverse effects [1]: No adverse effects
IGLHDPSHGTLPNGS (listed as Hamster sp.) [hamster INGAP]							patients with a >50% increase in GAD65 antibody titers (diabetic patients; 300 mg/day treatment group, Phase II study): 22%; C-peptide secretion (diabetic patients; 600 mg/day): increase; effectiveness (diabetic patients; Phase II trial): Little effectiveness; patient drop out due to discomfort and bruising at injection site (diabetic patients; human, in vivo): high drop out; tolerability (diabetic patients; human, in vivo): well tolerated; hemoglobin A1C (diabetic patients; type 2 diabetes patients): fell
IGLHDPTQGTEPNG (listed as Homo sapiens) [HIP2]	increased insulin production	increased insulin production	increased insulin production	increased insulin production	increased insulin production	increased insulin production	
IGLHDPTQGTEPNGE (listed as Homo sapiens) [HIP3]	increased insulin production	increased insulin production	increased insulin production	increased insulin production	increased insulin production	increased insulin production	new islet structure formation in culture (micrographs) [6]: Morphological changes show islet like structure; also recorded: New islet structure has formed; also recorded: forming a nidus of new insulin producing islets; also recorded: forming insulin producing islet like structure; blood glucose levels (NOD mice): pronounced reduction; insulitis in pancreases (histology) (NOD mice): decreased showing of insulinitis
WIGLHDPTQGTEPNG [HIP1]	increased insulin production	increased insulin production	increased insulin production	increased insulin production	increased insulin production	increased insulin production	
